Measured values published in the supplement of paper PMC10132981, “Formate overflow drives toxic folate trapping in MTHFD1 inhibited cancer cells” (Nature Metabolism, 2023).

Tested on: HCT116
Assay: cell viability relative to lowest-dose well (resazurin, 96 h); higher = more viable
Settings: RPMI + 10% FBS
Summary of the method: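 In 384-well plates, 50 µl RPMI with 10% FBS plus a metabolite supplement received 500 HCT116 or 1,000 SW620 cells per well. Dilution series of compounds, taken from 10 mM DMSO stocks, were added and the plates kept 96 h at 37 °C, 5% CO2. Viability, reported as percent of the lowest-dose well across independent replicate cultures, was measured as resazurin-to-resorufin conversion by fluorescence at 595 nm.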

CN(Cc1cnc2nc(N)nc(N)c2n1)c1ccc(C(=O)N[C@@H](CCC(=O)O)C(=O)O)cc1 [methotrexate]
cell viability [%]
Settings	0.001 µM	0.00278 µM	0.00774 µM	0.0215 µM	0.0599 µM	0.167 µM	0.464 µM	1.29 µM	3.59 µM
metabolite supplement: 50uM thymidine	96.3	96.8	91.8	36.4	31.6	31.9	31.5	31.6	31.3
metabolite supplement: 50uM thymidine + 250uM hypoxanthine	98.1	101	101	104	107	109	107	106	105
metabolite supplement: 250uM hypoxanthine	97.7	97.5	99.5	43.6	18.9	16.9	16.7	16.5	16
metabolite supplement: vehicle	99.2	96.37	66	31.4	19.1	17.6	16.8	16.4	–
